These results are taken from patent US10766942B2, “Fragments of syndecan-2 having anti-angiogenic activity” (Queen Mary University of London, priority 2014, dated 2020).

For experiment [1], the system named is HUVECs. Kind of experiment: Capillary network (tubule) formation of HUVECs on growth factor depleted Matrigel. It is filed as cell-based, human. Particulars: 1 μm, FIG. 3B. As for the experimental part:
80,000 HUVECs were seeded into 24 well plates coated with 100 μl/well of growth factor depleted Matrigel (BD Sciences) in the presence of the human syndecan-2 peptides scr or hS2pep at the concentrations indicated (scr corresponds to a scrambled control peptide). Tubule formation was monitored by time lapse microscopy using an Olympus IX81 microscope with a controlled environment chamber set at 37° C., 10% CO2. Images were captured every 30 minutes using a Hamamatsu Orca ER digital camera and processed using Cell^M software (Olympus). (A) Phase contrast images of tubules after 6 hours in culture. (B) Branch points were counted on at least four representative images. A branch point is defined at which two or more tubules meet.
To investigate the inhibitory effect of peptides derived from human syndecan-2, 80,000 HUVECs were seeded into 24 well plates coated with 100 ul/well of growth factor depleted Matrigel in the presence of scr or hS2pep. Tubule formation was monitored by time lapse microscopy (FIG. 3A).

The next experiment relates to murine aortic ring. Kind of experiment: Mouse aortic ring model of angiogenic sprout formation. It is filed as cell-based. Particulars: 0.5 μM in medium; sprouts counted after 7 days; murine aortic rings. As for the experimental part:
Aortic ring assay: Thoracic aortas dissected from cervically dislocated 180-200 g male wistar rats (Harlan Laboratories) or 6 week old C57BL/6 mice (Charles River) were sliced into 0.5 mm sections and incubated overnight in serum free OptiMEM (Invitrogen) at 37° C. Aortic rings were embedded in type I collagen (1 mg/ml) in E4 media (Invitrogen) containing either GST, syndecan-2 mutant proteins or peritoneal exudates in 48 well plates. Wells were supplemented with OptiMEM with 1% FBS and 10 ng/ml VEGF (R and D systems, 30 ng/ml for murine rings) and incubated at 37° C., 10% CO2. Angiogenic sprouts from rat and mouse aortas were counted after 4 days and 8 days respectively (Method based on that of Nicosia and Ottinetti (Laboratory Investigation 63:115-122, 1990) and modified in De Rossi et al. (Journal of Genetic Syndromes & Gene Therapy 4, 2013).
The peptide was added to the medium and sprouts were counted after 7 days in culture. Data represents the mean of at least 15 rings and error bars represent the SEM. Significance is indicated on the basis of a non-paired students t test (p***<0.001).

The next experiment deals with murine skin ECs. Description: Endothelial cell invasion through Collagen I (transwell). The note with it: 1 uM, counted after 24 hours, vs scr. Type of experiment: cell-based. As for the experimental part:
50,000 skin ECs were seeded and cells which had passed through the matrix were counted after 24 hours. Cells were stained with Calcein (5 μM) and cells imaged using an Olympus IX81 inverted microscope and a Hamamatuse Orca ER digital camera. Fluorescent cells are shown in (A) and the % migrated cells compared to the untreated control is shown in B. Cell numbers were counted from four independent images and error bars represent the SEM. Significance was calculated using 1 way ANOVA with Tukey's multiple comparison p<0.0001).
Invasion through the extracellular matrix is another indicator of angiogenesis. Collagen I matrices containing 1 uM of hS2pep and scr were prepared in an […] transwell. 50,000 murine skin ECs were seeded and cells which had passed through the matrix were counted after 24 hours.
Invasion assay: Invasion assays through collagen and Matrigel matrices were performed in 24-well plates with transwell inserts (Millipore; 8 μm pore size, polyester (PET) membrane). […] Invasion was measured after 6 hours after which time gels were removed with a cotton swab, the filter washed in PBS and stained with calcein (Invitrogen) and the number of cells attached to the filter was counted.

Experiment [2] has as its system choroidal neovascularisation. Kind of experiment: Laser-induced choroidal neovascularisation in vivo. Details: species or system mouse. Particulars: C57BL mice; 1 μM; 7 days post injury; injected into the eyes. As for the experimental part: 6 Week old C57BL mice were anaesthetised on day 0 and 3 laser burns were applied to both eyes. On day 3, 1 μl of 4 μM QM107 (hS2pep), PBS or 4 μM scrambled control were injected into both eyes of the animals. On day 7 the choroidal neovascularisation, in response to the laser lesion, were observed by fluorescein angiography. The area of Choroidal neovascularistaion was then calculated by analysis of images using IMAGEJ.
C57BL mice were treated as described above and it is evident from FIG. 11 that around 30% less choroidal neovascularisation occurs in mice treated with 1 μM of QM107 7 days post injury as compared to animals treated with PBS or the scrambled control. N=10 for each condition and significance was calculated using a students t test.

For another experiment, the system named is Matrigel plugs. Description: Matrigel plug assay (haemoglobin content). It is filed as in vivo, mouse. Particulars: 50 μM incorporated in plug; C57BL6 mice; vs scrambled peptide control or PBS. As for the experimental part:
Mice were sacrificed after three days and the plugs excised, photographed and incubated overnight in PBS. Haemoglobin was quantified using Drabkin's reagent (Sigma) as described by the manufacturer. All experiments were performed under the UK legislation for the protection of animals, and at the end of all in vivo procedures involving anaesthesia, animals were humanely killed by cervical dislocation in accordance with UK Home Office regulations. Excised plugs were frozen in liquid nitrogen and subsequently embedded in ice cold OCT, 15 μm sections were made using a cryostat at −20° C. Following fixation with 4% PFA for 5 min and blocking with 10% Normal Goat Serum for 15 min, sections were stained for nuclei (DRAQ5) and the EC marker CD31 overnight. Images were captured using a PASCAL laser-scanning confocal microscope (Carl Zeiss, 10× objective). Quantification was performed using the IMARIS software and Photoshop (Adobe), ECs were identified by co-localization of nuclei with CD31 staining.
Data is from 2 plugs per animal and is the mean of two measurements.

Experiment [3] has as its system HUVECs. Description: Scratch wound cell migration assay on HUVEC monolayers. It is filed as cell-based, human. As for the experimental part: In this assay scratches are made in confluent monolayers of HUVECS and the cells incubated in the presence or absence of different concentrations of the human syndecan-2 peptides. Cell migration is measured by time lapse microscopy using an Olympus IX81 microscope with a controlled environment chamber set at 37° C., 10% CO2. Images were captured every 30 minutes using a Hamamatsu Orca ER digital camera and processed using Cell^M software (Olympus). […]
In one assay, scratches were made in confluent monolayers of HUVECs and the cells incubated in the presence or absence of different concentrations of hS2pep (human syndecan-2 peptide) and scrambled peptides (FIG. 1A).
Scratch wound migration assays: Scratch wound migration assays were performed on confluent monolayers of ECs. Wounds were made using a pipette tip, and fusion proteins were added to the medium and images were captured every 30 minutes for 12 hours by time lapse microscopy using an Olympus IX81 microscope. Percentage wound closure was calculated and individual cells tracked using Image J.

A further experiment concerns Choroid explants. Description: Choroid explant model of angiogenic sprout formation. Particulars: doses 0.1 μM to 1 μM, counted after 7 days. Type of experiment: cell-based, mouse. As for the experimental part:
18 day old C57BL6 mice were sacrificed by cervical dislocation and eyes were enucleated prior to an incision being made 1 mm below the iris and removal of the iris, cornea lens and retina. The choroid is then removed flattened and cut into 1 mm pieces prior to incubation in serum free OptiMEM o/n at 37° C. Choroid explants are then embedded in a Collagen I matrix containing scrambled or experimental peptides and supplemented with OptiMEM containing 10 ng/ml murine VEGFA. Angiogenic sprouts were counted after 7 days.
The choroid is a vascular bed beneath the retinal pigment epithelium and supplies oxygen and nutrients to the outer retina. The choroid can be readily isolated from the murine eye and when placed in a suitable medium and after 4-6 days in culture vessel sprouting occurs and can be quantified. This assay recapitulates Choroidal neovascularisation, the cause of central vision loss in wet Age Related Macular Degeneration. […] Data is the mean number of sprouts from at least 6 Choroid explants from a total of 8 animals. Error bars represent the SEM and significance was calculated using a students t test p<0.05.

For “hS2pep: Peptide derived from human syndecan-2 (SEQ ID NO 6); development name QM107 (PAEEDTNVYTEKHSDSLF; hS2pep peptide derived from human syndecan-2)”, in the experiment on HUVECs [1], the “Capillary network formation (number of branch points)” value was “inhibited”. For the same substance, in the experiment on murine aortic ring, the Angiogenic sprout formation entry is recorded as “inhibited”. In addition, in the experiment with murine skin ECs, the “Invasion through collagen I” value is on record as “inhibited”. Further, the “Reduction of choroidal neovascularisation (area) compared to PBS or scrambled control” value in experiment [2] was “around 30%”. Besides, the “Haemoglobin content of Matrigel plugs” value in the experiment with Matrigel plugs was “greatly reduced”. The Scratch wound closure entry in the experiment with HUVECs [3] (1 uM, HUVECs, FIG. 1B) is “greatly reduced”. Besides, the HUVEC cell migration result in the experiment with HUVECs [3] (after 4 hours in culture, vs scrambled peptide) is “significantly inhibited”. Also, in the experiment with Choroid explants, the “Formation of angiogenic sprouts” value was “inhibit the formation of angiogenic sprouts”.
